Test results: ChEMBL document CHEMBL1158234, “Halistanol disulfate B, a novel sulfated sterol from the sponge Pachastrella sp.: inhibitor of endothelin converting enzyme” (J Nat Prod, 1996)
Calls of active or inactive are those of the source. No cut-off for these calls is given here.

Legend:
COS = assay: (§1) Inhibition of recombinant ECE expressed in african green monkey COS cells assessed as endothelin formation by EIA assay; type: cell-based
[1] = as §1; type: cell-based

Structure (SMILES): O=C(NCCSSCCNC(=O)/C(Cc1cccc(OS(=O)(=O)O)c1Br)=N/O)/C(Cc1cc(Br)c(O)c(-c2ccc(C/C(=N\O)C(=O)NCCSSCCNC(=O)/C(Cc3ccc(OS(=O)(=O)O)c(Br)c3)=N/O)c(Br)c2O)c1)=N/O
- Activity (COS): Active

Structure (SMILES): O=C(NCCSSCCNC(=O)/C(Cc1ccc(Br)c(OS(=O)(=O)O)c1)=N/O)/C(Cc1ccc(OS(=O)(=O)O)c(Br)c1)=N/O
- Activity (COS): Active

Structure (SMILES): C=CCCC[C@@H](C)[C@H]1CC[C@H]2[C@@H]3CC[C@H]4C[C@H](OS(=O)(=O)O)[C@@H](OS(=O)(=O)O)C[C@]4(C)[C@H]3CC[C@]12C [HALISTANOL DISULFATE B]
- IC50 [1]: 2.1 µM

Structure (SMILES): C=CCCC[C@@H](C)[C@H]1CC[C@H]2[C@@H]3CC[C@H]4C[C@H](O)[C@@H](O)C[C@]4(C)[C@H]3CC[C@]12C
- Activity (COS): inactive

Structure (SMILES): C[C@H](CC[C@H](C)C(C)(C)C)[C@H]1CC[C@H]2[C@@H]3C[C@H](OS(=O)(=O)O)[C@H]4C[C@H](OS(=O)(=O)O)[C@@H](OS(=O)(=O)O)C[C@]4(C)[C@H]3CC[C@]12C
- Activity (COS): Active
